Source: PubChem BioAssay (NCI)
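How tested: cells in 96-well plates exposed to compound for 48 hours at five concentrations. At the TGI there is no net growth.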

Legend:
Assay in all cases: DTP human tumour cell line panel, 48 h
ACHN renal = test system: ACHN renal
CCRF-CEM leukemia = test system: CCRF-CEM leukemia
EKVX NSCLC = test system: EKVX NSCLC
HCT-116 colon = test system: HCT-116 colon
KM20L2 colon = test system: KM20L2 colon
MALME-3M melanoma = test system: MALME-3M melanoma
MCF7 breast = test system: MCF7 breast
MDA-MB-231 breast = test system: MDA-MB-231 breast
NCI-H226 lung = test system: NCI-H226 lung
NCI-H460 lung = test system: NCI-H460 lung
NCI-H522 lung = test system: NCI-H522 lung
OVCAR-4 ovarian = test system: OVCAR-4 ovarian
OVCAR-8 ovarian = test system: OVCAR-8 ovarian
RPMI-8226 leukemia = test system: RPMI-8226 leukemia
SF-295 CNS = test system: SF-295 CNS
SK-MEL-28 melanoma = test system: SK-MEL-28 melanoma
SR leukemia = test system: SR leukemia
SW-620 colon = test system: SW-620 colon
UACC-257 melanoma = test system: UACC-257 melanoma
M14 melanoma = test system: M14 melanoma

| Structure (SMILES) | TGI (ACHN renal) | TGI (CCRF-CEM leukemia) | TGI (EKVX NSCLC) | TGI (HCT-116 colon) | TGI (KM20L2 colon) | TGI (MALME-3M melanoma) | TGI (MCF7 breast) | TGI (MDA-MB-231 breast) | TGI (NCI-H226 lung) | TGI (NCI-H460 lung) | TGI (NCI-H522 lung) | TGI (OVCAR-4 ovarian) | TGI (OVCAR-8 ovarian) | TGI (RPMI-8226 leukemia) | TGI (SF-295 CNS) | TGI (SK-MEL-28 melanoma) | TGI (SR leukemia) | TGI (SW-620 colon) | TGI (UACC-257 melanoma) | TGI (M14 melanoma) |
| --- | --- | --- | --- | --- | --- | --- | --- | --- | --- | --- | --- | --- | --- | --- | --- | --- | --- | --- | --- | --- |
| NC(=O)N=C(N(Cc1ccccc1)Cc1ccccc1)N(Cc1ccccc1)Cc1ccccc1 | > 100 µM | > 100 µM | > 100 µM | > 100 µM | > 100 µM | > 100 µM | > 100 µM | > 100 µM | > 100 µM | > 100 µM | > 100 µM | > 75.6 µM | > 100 µM | > 100 µM | 35.1 µM | > 100 µM | > 100 µM | > 100 µM | > 100 µM | – |
| C=CC/C=C/Cc1csc(C(C)(C)C(O)C/C=C/C(=C)CCNC(=O)OC)n1 (stereo unspecified) | > 100 µM | > 100 µM | > 100 µM | > 100 µM | > 100 µM | > 100 µM | > 100 µM | – | > 100 µM | > 100 µM | > 100 µM | > 100 µM | > 100 µM | > 100 µM | > 100 µM | > 100 µM | > 100 µM | > 46.4 µM | > 100 µM | > 100 µM |
| COc1cc(OC)c2c(c1)C(=O)C(CC(C)O)=CC2=O (stereo unspecified) | 30.2 µM | 33.5 µM | 26.2 µM | 25 µM | 31.8 µM | 37.3 µM | – | – | 35.4 µM | 40.4 µM | 30.9 µM | 31.9 µM | 29.5 µM | 46.4 µM | 27.4 µM | 31.5 µM | 7.44 µM | 31.7 µM | 30.7 µM | 32.9 µM |
